Patent US7718641B2, “Pyrrolo [3,4-H] isoquinoline compounds and methods for modulating gated ion channels” (Aros Pharma ApS, priority 2005, dated 2010)

Assays:
[1] = test system: CFA-induced thermal hyperalgesia; assay: CFA model, thermal hyperalgesia (Hargreaves plantar test); type: in vivo, rat
Method: Assessment of thermal hyperalgesia: Baseline and post-treatment withdrawal latencies to a noxious thermal stimulus were measured according to Hargreaves (Hargreaves et al., 1988) using a plantar test analgesia meter (IITC, Woodland Hills, Calif., model # 336). The stimulus intensity was set at 30% of maximum output and the cut-off time was set at 30 seconds. Rats were placed on a glass plate warmed to 28° C. and allowed to habituate to the testing chambers for a minimum of 15 minutes prior to each testing session. The thermal stimulus was applied to the plantar surface of the paw, and the mean latency of three readings on each paw was used as the latency value for each time point. Thermal thresholds were defined as the latency in seconds to the first pain behavior, which includes nocifensive paw withdrawal, flinching, biting and/or licking of the stimulated paw. The mean and standard error of the mean (SEM) were determined for the injured and normal paws for each treatment group.
For comparison, results with morphine (6 mg/kg sc) and indomethacin (30 mg/kg po) are shown. […] Data are expressed as mean±SEM, (n=10). **P<0.01, vs. baseline.

[2] = test system: CFA-induced inflammatory pain; assay: CFA model of chronic inflammatory pain, hindpaw weight bearing (Incapacitance Tester); type: in vivo, rat; conditions: 24 h after CFA, 60 min after drug injection, n=7-8
Method: Rats (body weight 260-300 g) were given a s.c. injection of CFA (50% in saline, 100 μl, Sigma) into the plantar surface of the hindpaw under brief halothane anaesthesia. After 24 h, they were then tested for hindpaw weight bearing responses, as assessed using an Incapacitance Tester (Linton Instrumentation, UK), (Zhu et al., 2005). The instrument incorporates a dual channel scale that separately measures the weight of the animal distributed to each hindpaw. While normal rats distribute their body weight equally between the two hindpaws (50-50), the discrepancy of weight distribution between an injured and non-injured paw is a natural reflection of the discomfort level in the injured paw (nocifensive behavior). The rats were placed in the plastic chamber designed so that each hindpaw rested on a separate transducer pad. […] For each rat, three readings from each paw were taken and then averaged. Side-to-side weight bearing difference was calculated as the average of the absolute value of the difference between two hindpaws from three trials (right paw reading-left paw reading).
Hindpaw weight bearing responses were measured in male Sprague-Dawley rats for 2-3 days prior to being given a hindpaw injection of CFA. Twenty-four hours later baseline responses were measured and rats were then administered Compound A (5, 10 and 20 mg/kg, i.p.), Compound H (10, 30 and 60 mg/kg) and morphine (3, 6 and 10 mg/kg). Weight bearing responses were then measured at 30, 60 and 120 min after drug or vehicle injection (data shown at 60 min.). […] Data are expressed as mean +/−SEM. *P<0.05, **P<0.01, *** P<0.001 vs baseline; +++: P<0.001 vs vehicle. All groups n=7-8.

Row | SMILES | efficacy on CFA-induced thermal hyperalgesia ([1]; 30 mg/kg po) | CFA-induced change in hindpaw weight bearing compared with vehicle [2] | efficacy on CFA-induced thermal hyperalgesia ([1]; 6 mg/kg sc)
1 | COc1ccc2c(c1)c(CC(=O)O)c(C)n2C(=O)c1ccc(Cl)cc1 [indomethacin, reference compound] | fully efficacious | – | –
2 | CN1CC[C@]23c4c5ccc(O)c4O[C@H]2[C@@H](O)C=C[C@H]3[C@H]1C5 [morphine, reference compound] | – | marked dose-dependent attenuation in the CFA-induced change in weight bearing | fully efficacious
